System: CRC cell lines
Assay: Drug response in cell lines (CellTiter-Glo proliferation, 72 h)
Format: cell-based, human
Details: PHA-665752 125 nM, relative to vehicle-treated cells (FIG. 3E)
Procedure: Colon cancer cell lines were grown in DMEM (Gibco, USA) plus 10% FBS (Invitrogen, USA) without antibiotics/antimycotics. All the cell lines were confirmed to be negative for mycoplamsa by PCR (VenorGeM kit, Sigma, USA) prior to use and were tested monthly.
Proliferation was monitored using CellTiter-Glo® assay kit according to the manufacturer's instruction (Promega, Dubendorf, Switzerland) on day 3 (72 h).

Cc1[nH]c(/C=C2\C(=O)Nc3ccc(S(=O)(=O)Cc4c(Cl)cccc4Cl)cc32)c(C)c1C(=O)N1CCC[C@@H]1CN1CCCC1 [cMet inhibitor, PHA-665752]
sensitivity to cMet inhibition, CR-TA versus CS-TA cell lines: CR-TA cell lines were much more sensitive to cMet inhibition than CS-TA cell lines

From patent US20150354009A1, “COLORECTAL CANCER CLASSIFICATION WITH DIFFERENTIAL PROGNOSIS AND PERSONALIZED THERAPEUTIC RESPONSES” (ECOLE POLYTECHNIQUE FEDERALE DE LAUSANNE (EPFL), priority 2012, published 2015)
